Here are results for 3 compounds from patent US20250127180A1, “PARTICLES COMPRISING DOUBLE STRANDED RNA AND USE OF SAME IN AGRICULTURE” (priority 2022, published 2025).

The structures appear in SMILES notation.

The subject of the test is B. cinerea. In words: In-vitro fungal growth, O.D at 600 nm. Format: cell-based, Botrytis cinerea. The procedure:
To test the effect of commonly used fungicide on B. cinerea growth, ‘Procloraz’ (Sportak, Bayer Cropscience LLC, Monheim am Rhein, Germany) or ‘fludioxonil’ (scholar, Hod-Hasharon, Israel) fungicide were diluted in 1% SMB to final concentrations of 1-1000 ppb or 0.01-1,000 ppb, respectively.
The plates were incubated at room temperature and O.D measurement at 600 nm was taken every hour for 48-72 hours using Synergy LX plate reader (BioTek, Winooski, Vermont, United States). The absorbance of three wells of repeats was averaged together and was background-corrected by subtracting the average absorbance of media alone at time zero (Galsurker et al., 2020; Langvad, 1999). Growth inhibition percentage was calculated (O.D in control well−O.D in treatment well)/O.D in control well×100) (Meletiadis et al., 2003). Coefficient treatment interaction (CTI) was calculated as follows: CTI=AB/(A×B). AB is the ratio of the treatment combination to control; A, or B is the ratio of the single treatment to control. Coefficient treatment interaction is considered as synergistic when CTI<1 (Chen et al., 2014).

Take `N#Cc1c[nH]cc1-c1cccc2c1OC(F)(F)O2` [Fludioxonil]: the B. cinerea growth entry (0.01-1,000 ppb, data not shown) is listed as “reduced B. cinerea growth in a non-linear manner”.

`CCCN(CCOc1c(Cl)cc(Cl)cc1Cl)C(=O)n1ccnc1` [Prochloraz, prochloraz]: the “fungal growth (O.D)” value (1-1,000 ppb in growth media) is “dose-dependent reduction of fungal growth”.

On to `CC(C)[C@@H](C)/C=C/[C@@H](C)[C@H]1CC[C@H]2C3=CC=C4C[C@@H](O)CC[C@]4(C)[C@H]3CC[C@]12C` [ergosterol], for which, for the setting “ergosterol added to control”, the fungal growth result is given as “did not alter fungal growth”.
